Laboratory results: ChEMBL document CHEMBL6153079, “Discovery of noncovalent diaminopyrimidine-based Inhibitors for glioblastoma via a dual FAK/DNA targeting strategy” (Eur J Med Chem, 2025)
Active and inactive are the calls of the source. No cut-off for these calls is given here.

What was measured:
U-87 MG [1] = experiment: Induction of cell cycle arrest in human U-87 MG cells assessed as accumulation of cells at G2M phase at 0.02 uM by propidium Iodide staining based flow cytometry analysis (reference value: 9.73%); format: functional, U-87MG ATCC
U-87 MG [2] = experiment: Inhibition of ERK1/2 phosphorylation in human U-87 MG cells at 0.05 uM incubated for 24 hrs by Western blot analysis; format: cell-based
U-87 MG [3] = experiment: Induction of cell cycle arrest in human U-87 MG cells assessed as accumulation of cells at G0/G1 phase at 2 uM by propidium Iodide staining based flow cytometry analysis (reference value: 80.68%); format: functional, U-87MG ATCC
[4] = Distribution coefficient, logD of compound in n-Octanol/water at pH 7.4; format: physicochemical
[5] = Selectivity ratio of IC50 for cytotoxicity against human LO2 assessed as cell viability to IC50 for antiproliferative activity against human U-87 MG assessed as cell viability; format: toxicity; settings: LO2 cells versus U-87 MG cells, read-out: Ratio IC50
[6] = Toxicity in BALB/c mouse implanted with human U-87 MG cells assessed as liver damage at 5 mg/kg, ip administered once daily for 15 days by H and E staining based analysis; format: organism-based; settings: in vivo, 360 h, time 15 day
U-251 = experiment: Antiproliferative activity against human U-251 assessed as cell viability incubated for 48 hrs by MTT assay; format: functional, cell-based; settings: U-251, 48 h
U-87 MG [7] = experiment: Induction of cell cycle arrest in human U-87 MG cells assessed as accumulation of cells at S phase at 2 uM by propidium Iodide staining based flow cytometry analysis (reference value: 9.59%); format: functional, U-87MG ATCC
Focal adhesion kinase 1 [8] = target: T1, Focal adhesion kinase 1 (Homo sapiens, UniProt Q05397); experiment: Inhibition of FAK (unknown origin) at 10 nM relative to control
Target sequence in this assay (Q05397 2-1052 limits assumed): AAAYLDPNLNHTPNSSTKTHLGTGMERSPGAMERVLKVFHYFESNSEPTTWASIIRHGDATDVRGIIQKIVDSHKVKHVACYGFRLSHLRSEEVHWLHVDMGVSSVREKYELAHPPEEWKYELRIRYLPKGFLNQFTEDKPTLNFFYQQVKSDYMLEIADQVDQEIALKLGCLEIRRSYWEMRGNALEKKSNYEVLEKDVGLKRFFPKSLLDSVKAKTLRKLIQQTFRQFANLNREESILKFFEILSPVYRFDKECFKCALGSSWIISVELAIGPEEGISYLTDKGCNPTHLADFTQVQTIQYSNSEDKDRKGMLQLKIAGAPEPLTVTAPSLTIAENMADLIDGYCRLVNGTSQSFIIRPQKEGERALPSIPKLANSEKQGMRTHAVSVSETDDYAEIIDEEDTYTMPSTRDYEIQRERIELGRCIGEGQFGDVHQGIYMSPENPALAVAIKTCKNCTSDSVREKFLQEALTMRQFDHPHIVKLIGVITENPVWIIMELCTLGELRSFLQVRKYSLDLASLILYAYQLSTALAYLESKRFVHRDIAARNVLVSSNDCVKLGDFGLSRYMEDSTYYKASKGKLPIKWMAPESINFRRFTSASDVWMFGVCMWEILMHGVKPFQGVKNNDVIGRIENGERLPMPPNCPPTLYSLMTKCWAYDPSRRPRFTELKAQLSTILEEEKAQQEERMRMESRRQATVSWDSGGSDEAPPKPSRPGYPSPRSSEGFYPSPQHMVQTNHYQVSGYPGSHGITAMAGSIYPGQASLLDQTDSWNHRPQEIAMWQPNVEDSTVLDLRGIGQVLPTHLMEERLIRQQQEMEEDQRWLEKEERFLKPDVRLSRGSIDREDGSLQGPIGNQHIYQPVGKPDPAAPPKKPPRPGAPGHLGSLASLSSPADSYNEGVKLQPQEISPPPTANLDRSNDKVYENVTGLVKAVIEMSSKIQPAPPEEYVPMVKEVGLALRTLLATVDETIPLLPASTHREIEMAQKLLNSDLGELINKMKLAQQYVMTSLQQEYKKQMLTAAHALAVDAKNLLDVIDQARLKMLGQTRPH

U-87 MG [9] = experiment: Induction of apoptosis in human U-87 MG cells assessed as viable cells at 2 uM measured upto 24 hrs by Annexin V-FITC/PI staining based flow cytometry analysis (reference value: 98.4%); format: functional, U-87MG ATCC; settings: read-out: Activity
U-87 MG [10] = experiment: Induction of apoptosis in human U-87 MG cells assessed as necrotic cells at 0.2 uM measured upto 24 hrs by Annexin V-FITC/PI staining based flow cytometry analysis (reference value: 0.62%); format: functional, U-87MG ATCC
U-87 MG [11] = experiment: Induction of cell cycle arrest in human U-87 MG cells assessed as accumulation of cells at G0/G1 phase at 0.2 uM by propidium Iodide staining based flow cytometry analysis (reference value: 80.68%); format: functional, U-87MG ATCC
U-87 MG [12] = experiment: Induction of DNA damage in human U-87 MG cells incubated for 2.5 to 3 hrs by comet assay; format: functional, cell-based; settings: U-87MG ATCC, dose 0.1-2 µM, time 2.5-3 hrs
U-87 MG [13] = experiment: Induction of cell cycle arrest in human U-87 MG cells assessed as accumulation of cells at G2M phase at 0.01 uM by propidium Iodide staining based flow cytometry analysis (reference value: 9.73%); format: functional, U-87MG ATCC
[14] = Toxicity in BALB/c mouse implanted with human U-87 MG cells assessed as liver damage at 25 mg/kg, ip administered once daily for 15 days by H and E staining based analysis; format: organism-based; settings: in vivo, 360 h, time 15 day
U-87 MG [15] = experiment: Antitumor activity against human U-87 MG cells xenografted in BALB/c mouse assessed as inhibition of tumor growth at 5 mg/kg, ip administered once daily for 15 days; format: functional, U-87MG ATCC; settings: 360 h, time 15 day, read-out: TGI
U-87 MG [16] = experiment: Induction of cell cycle arrest in human U-87 MG cells assessed as accumulation of cells at […] at 2 uM by propidium Iodide staining based flow cytometry analysis (reference value: 1.67%); format: functional, U-87MG ATCC
Focal adhesion kinase 1 [17] = target: T1, Focal adhesion kinase 1; experiment: Inhibition of FAK phosphorylation in human U-87 MG cells at 0.05 uM incubated for 24 hrs by Western blot analysis; format: cell-based
Target sequence in this assay (Q05397 2-1052 limits assumed): as above

[18] = Cytotoxicity against human 2BS assessed as cell viability incubated for 48 hrs by MTT assay; format: toxicity, cell-based; settings: 2BS cells
U-87 MG [19] = experiment: Inhibition of ERK1/2 phosphorylation in human U-87 MG cells at 0.8 uM incubated for 24 hrs by Western blot analysis; format: cell-based
[20] = Toxicity in BALB/c mouse implanted with human U-87 MG cells assessed as body weight loss at 5 to 25 mg/kg, ip administered once daily for 15 days by H and E staining based analysis; format: organism-based; settings: in vivo, 360 h, dose 5-25 mg/kg, time 15 day
[21] = Toxicity in BALB/c mouse implanted with human U-87 MG cells assessed as tolerability at 5 to 25 mg/kg, ip administered once daily for 15 days by H and E staining based analysis; format: organism-based; settings: in vivo, 360 h, dose 5-25 mg/kg, time 15 day
U-87 MG [22] = experiment: Induction of apoptosis in human U-87 MG cells assessed as late apoptotic cells at 2 uM measured upto 24 hrs by Annexin V-FITC/PI staining based flow cytometry analysis (reference value: 0.54%); format: functional, U-87MG ATCC
U-87 MG [23] = experiment: Induction of cell cycle arrest in human U-87 MG cells assessed as accumulation of cells at […] at 0.01 uM by propidium Iodide staining based flow cytometry analysis (reference value: 1.67%); format: functional, U-87MG ATCC
U-87 MG [24] = experiment: Induction of cell cycle arrest in human U-87 MG cells assessed as accumulation of cells at S phase at 0.2 uM by propidium Iodide staining based flow cytometry analysis (reference value: 9.59%); format: functional, U-87MG ATCC
[25] = Toxicity in BALB/c mouse implanted with human U-87 MG cells assessed as hypertrophy in myocardium at 5 mg/kg, ip administered once daily for 15 days by H and E staining based analysis; format: organism-based; settings: in vivo, 360 h, time 15 day
Focal adhesion kinase 1 [26] = target: T1, Focal adhesion kinase 1; experiment: Inhibition of FAK (unknown origin) preincubated for 10 mins followed by ATP and substrate addition and measured after 50 mins by HTRF analysis
Target sequence in this assay (Q05397 whole entry): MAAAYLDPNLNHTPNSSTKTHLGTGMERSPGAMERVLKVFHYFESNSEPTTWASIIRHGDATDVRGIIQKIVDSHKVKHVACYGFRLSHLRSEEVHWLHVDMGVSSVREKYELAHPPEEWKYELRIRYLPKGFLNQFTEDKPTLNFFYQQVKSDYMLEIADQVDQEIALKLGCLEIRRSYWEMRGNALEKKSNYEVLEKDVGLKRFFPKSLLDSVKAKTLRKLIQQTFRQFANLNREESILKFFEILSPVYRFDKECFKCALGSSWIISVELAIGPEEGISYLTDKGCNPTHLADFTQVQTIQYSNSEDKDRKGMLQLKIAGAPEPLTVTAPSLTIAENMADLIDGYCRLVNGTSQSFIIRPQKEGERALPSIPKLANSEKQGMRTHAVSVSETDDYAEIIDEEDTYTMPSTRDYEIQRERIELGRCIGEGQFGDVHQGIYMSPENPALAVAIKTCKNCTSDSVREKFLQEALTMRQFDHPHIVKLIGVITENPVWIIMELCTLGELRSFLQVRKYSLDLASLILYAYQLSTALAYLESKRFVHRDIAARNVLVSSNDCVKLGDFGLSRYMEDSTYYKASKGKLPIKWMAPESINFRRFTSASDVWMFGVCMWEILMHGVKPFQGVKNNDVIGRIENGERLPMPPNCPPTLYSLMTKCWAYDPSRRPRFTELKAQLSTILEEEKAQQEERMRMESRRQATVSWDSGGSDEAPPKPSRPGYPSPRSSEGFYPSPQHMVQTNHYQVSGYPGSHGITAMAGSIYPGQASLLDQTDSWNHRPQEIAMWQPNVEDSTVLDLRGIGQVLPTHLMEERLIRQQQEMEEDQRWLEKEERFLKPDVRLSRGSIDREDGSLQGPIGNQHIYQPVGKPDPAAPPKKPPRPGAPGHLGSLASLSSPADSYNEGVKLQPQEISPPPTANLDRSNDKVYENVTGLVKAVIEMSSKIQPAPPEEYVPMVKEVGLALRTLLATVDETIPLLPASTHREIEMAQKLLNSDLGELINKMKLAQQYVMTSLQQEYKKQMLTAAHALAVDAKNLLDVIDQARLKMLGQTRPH

[27] = Cytotoxicity against human LO2 assessed as cell viability incubated for 48 hrs by MTT assay; format: toxicity, cell-based, L02; settings: LO2 cells
U-87 MG [28] = experiment: Induction of cell cycle arrest in human U-87 MG cells assessed as accumulation of cells at G2M phase at 2 uM by propidium Iodide staining based flow cytometry analysis (reference value: 9.73%); format: functional, U-87MG ATCC
U-87 MG [29] = experiment: Induction of apoptosis in human U-87 MG cells assessed as viable cells at 0.02 uM measured upto 24 hrs by Annexin V-FITC/PI staining based flow cytometry analysis (reference value: 98.4%); format: functional, U-87MG ATCC; settings: read-out: Activity
U-87 MG [30] = experiment: Inhibition of cell migration in human U-87 MG cells assessed as […] in migration distance at 0.1 to 1 uM incubated for 24 to 48 hrs by wound healing assay; format: functional, cell-based; settings: U-87MG ATCC, dose 0.1-1 µM, time lower 24.0 hrs, time upper […]
U-87 MG [31] = experiment: Induction of apoptosis in human U-87 MG cells assessed as […] in Bcl-xL level at 0.05 to 0.8 uM incubated for 24 hrs by Western blot analysis; format: functional, cell-based; settings: U-87MG ATCC, dose 0.05-0.8 µM
U-87 MG [32] = experiment: Induction of DNA damage in human U-87 MG cells assessed as comet tail moment at 0.1 to 2 uM incubated for 2.5 to 3 hrs by comet assay; format: functional, U-87MG ATCC; settings: time 2.5-3 hrs
U-87 MG [33] = experiment: Induction of apoptosis in human U-87 MG cells assessed as late apoptotic cells at 0.2 uM measured upto 24 hrs by Annexin V-FITC/PI staining based flow cytometry analysis (reference value: 0.54%); format: functional, U-87MG ATCC
U-87 MG [34] = experiment: Inhibition of AKT phosphorylation in human U-87 MG cells at 0.8 uM incubated for 24 hrs by Western blot analysis; format: cell-based

**Q.** With `CNC(=O)c1ccccc1Nc1nc(Nc2ccc(N3CCN(CCOC(=O)CCCc4ccc(N(CCCl)CCCl)cc4)CC3)cc2)ncc1C(F)(F)F` as the compound, how does the Activity (U-87 MG [1]) read?
**A.** 20.9%

**Q.** What about the inhibition (U-87 MG [2]) of the same compound?
**A.** Active

**Q.** And the Activity (U-87 MG [3])?
**A.** 38.9%

**Q.** And the logD [4]?
**A.** 6.06

**Q.** And the selectivity ratio [5]?
**A.** > 40

**Q.** What about the Activity [6] of the same compound?
**A.** Non-toxic

**Q.** What about the IC50 (U-251) of the same compound?
**A.** 20 nM

**Q.** What about the Activity (U-87 MG [7]) of the same compound?
**A.** 10.99%

**Q.** And the inhibition (Focal adhesion kinase 1 [8])?
**A.** 98.6%

**Q.** What about the viability at 2 µM (U-87 MG [9]) of the same compound?
**A.** 44.2%

**Q.** What about the Activity (U-87 MG [10]) of the same compound?
**A.** 2.31%

**Q.** And the Activity (U-87 MG [11])?
**A.** 44.98%

**Q.** And the Activity (U-87 MG [12])?
**A.** Dose-dependent-effect; Ability To Induce Dna Damage Was Stronger Than That Of Tmx And Chlorambucil

**Q.** What about the Activity (U-87 MG [13]) of the same compound?
**A.** 16.53%

**Q.** And the Activity [14]?
**A.** Non-toxic

**Q.** What about the inhibition in vivo at 5 mg/kg (U-87 MG [15]) of the same compound?
**A.** 63.7%

**Q.** And the Activity (U-87 MG [16])?
**A.** 1.88%

**Q.** What about the inhibition (Focal adhesion kinase 1 [17]) of the same compound?
**A.** Active

**Q.** And the IC50 at 48 h [18]?
**A.** 11100 nM

**Q.** And the inhibition (U-87 MG [19])?
**A.** 100%

**Q.** And the Activity [20]?
**A.** Non-toxic

**Q.** And the Activity [21]?
**A.** Non-toxic

**Q.** What about the Activity (U-87 MG [22]) of the same compound?
**A.** 7.19%

**Q.** And the Activity (U-87 MG [23])?
**A.** 1.77%

**Q.** And the Activity (U-87 MG [24])?
**A.** 11.41%

**Q.** And the Activity [25]?
**A.** Non-toxic

**Q.** What about the IC50 (Focal adhesion kinase 1 [26]) of the same compound?
**A.** 0.815 nM

**Q.** And the IC50 at 48 h [27]?
**A.** 586 nM

**Q.** And the Activity (U-87 MG [28])?
**A.** 50.11%

**Q.** What about the viability at 0.02 µM (U-87 MG [29]) of the same compound?
**A.** 63.8%

**Q.** And the inhibition (U-87 MG [30])?
**A.** Active

**Q.** And the Activity (U-87 MG [31])?
**A.** Active

**Q.** And the Activity (U-87 MG [32])?
**A.** 11.6

**Q.** What about the Activity (U-87 MG [33]) of the same compound?
**A.** 5.65%

**Q.** And the inhibition (U-87 MG [34])?
**A.** 100%
